#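 Interpolation was linear, between the two tested concentrations surrounding the appropriate level; five concentrations were tested over 48 hours in 96-well plates. GI50 is the concentration that inhibits growth by half. TGI is the concentration that stops growth completely.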
# Tests used:
# Experiment in all cases: NCI anticancer screen, dose series, 48 h
# OVCAR-5 ovarian = system: OVCAR-5 ovarian
# RXF 393 renal = system: RXF 393 renal
# KM12 colon = system: KM12 colon
# NCI-H460 lung = system: NCI-H460 lung
# MDA-MB-231 breast = system: MDA-MB-231 breast
# COLO 205 colon = system: COLO 205 colon
# MOLT-4 leukemia = system: MOLT-4 leukemia
# SK-MEL-5 melanoma = system: SK-MEL-5 melanoma
# NCI/ADR-RES ovarian = system: NCI/ADR-RES ovarian
# HCT-15 colon = system: HCT-15 colon
Structure (SMILES),GI50 (OVCAR-5 ovarian) [µM],TGI (OVCAR-5 ovarian) [µM],GI50 (RXF 393 renal) [µM],TGI (RXF 393 renal) [µM],GI50 (KM12 colon) [µM],TGI (KM12 colon) [µM],GI50 (NCI-H460 lung) [µM],TGI (NCI-H460 lung) [µM],GI50 (MDA-MB-231 breast) [µM],TGI (MDA-MB-231 breast) [µM],GI50 (COLO 205 colon) [µM],TGI (COLO 205 colon) [µM],GI50 (MOLT-4 leukemia) [µM],TGI (MOLT-4 leukemia) [µM],GI50 (SK-MEL-5 melanoma) [µM],TGI (SK-MEL-5 melanoma) [µM],GI50 (NCI/ADR-RES ovarian) [µM],TGI (NCI/ADR-RES ovarian) [µM],GI50 (HCT-15 colon) [µM],TGI (HCT-15 colon) [µM]
C=C1C(=O)O[C@H]2C[C@@H]1CCC1(C)OC1CC/C(C)=C/CC[C@H]2C (stereo not given in full),15.9,30,21.4,43.1,22.2,43.1,17.1,33.1,17.7,32.2,15.6,36.2,18,33.5,17.3,31.5,18.5,35.4,17.3,31.1
Cc1cc2nc3c4cccc(O)c4n(CCN(C)C)c3nc2cc1C,2.97,9.1,2.48,8.98,1.65,4.17,0.818,6.13,2.04,5.63,3.89,19.4,0.443,8.98,1.67,3.08,1.97,11.4,1.29,3.79
NC(=O)NCCSC1CCCCC1O (stereo not given),,> 100,,> 100,,> 100,,> 100,,> 100,,> 100,,78,,> 100,,> 100,,> 100
COc1cc2c(cc1OC)-c1c(c3ccc([N+](=O)[O-])cc3c(=O)n1CCCN)C2=O,3.46,9.54,1.21,4.12,2.1,4.92,0.403,8.97,0.521,1.54,1.83,8.85,0.165,1.6,2.5,8.47,0.342,2.87,1.3,3.66
CCN1CCC(CC(=O)Nc2n[nH]c3nc(-c4cccs4)c(Br)cc23)CC1,15.9,> 25,5.51,16.8,5.81,13.8,10.1,> 25,14.7,> 25,3.91,8.16,9.07,24.5,6.37,> 14.6,> 20.7,> 25,6.89,> 20.6
CN1CCC(n2[nH]c(-c3ccccc3)c(Cc3ccccc3)c2=O)CC1,,> 100,,> 100,,> 100,,> 100,,> 100,,> 100,,89.7,,> 100,,> 100,,> 100
c1cncc(CNc2ncn[nH]2)c1,,> 100,,> 100,,> 100,,> 100,,> 100,,> 100,,> 100,,> 100,,> 100,,> 100
CN(C)S(=O)(=O)c1ccc(Nc2ccc(O)c3c2C(=O)c2c([N+](=O)[O-])ccc(O)c2C3=O)cc1,,> 100,,> 100,,> 100,,> 100,,> 100,,> 100,,> 100,,> 100,,> 100,,> 100
COC(=O)[C@]12CC=C3O[C@@H]4OC5(CCCCC5)O[C@@H]4[C@H]3C1C(=O)C=CC2=O (stereo not given in full),,38.8,,25.8,,20.7,,45.5,,32.8,,30.4,,21.4,,32.8,,38.5,,34.2
CCOC(=O)/C(=C\c1ccc(F)cc1)C(C)=O,,> 100,,34.8,,69,,97.4,,52,,> 100,,89,,47.1,,> 100,,44.2
Cc1ccc(F)cc1NC(=O)c1cc(Cl)ccc1Nc1ccccc1,> 100,> 100,74.7,> 100,> 100,> 100,> 100,> 100,6.96,> 100,> 100,> 100,37.9,> 100,> 100,> 100,> 100,> 100,> 100,> 100
COc1ccc(-n2c3c(c4c(CN(C)C)c(O)c(C)cc42)CCc2ccccc2C3=O)cc1,35.2,> 100,16.1,75.6,21.1,63.9,69.1,> 100,25,90.1,> 100,> 100,22.9,65.7,21.5,68.8,17.9,45.2,28.7,> 100
COc1cc(/C=C2\C(=O)Nc3ccccc32)cc(OC)c1OC,29.2,76.2,2.37,10.6,11.7,98,11.8,> 100,11.4,78.1,14.5,47.9,12,71.3,11.1,57.1,11.6,45.6,11.6,> 100
CNCCOC(=O)/C=C1/CCC2C(C(O)CC3C(C)(C(=O)OC)CCCC23C)C1C (stereo not given),0.0264,0.0693,0.0156,0.0521,0.0339,0.111,< 0.01,0.019,0.0604,0.229,0.0348,0.0958,< 0.01,0.0203,0.0163,0.0321,0.0185,0.0378,0.0258,0.0654
COc1ccc(-n2c(C)nc3c(c(C)nn3-c3ccccc3)c2=O)cc1,0.298,> 100,0.0609,> 100,0.0532,> 100,0.0478,> 40,0.311,> 100,0.12,1.93,0.196,> 40.4,0.0615,4.6,0.0534,> 100,0.0483,> 100

# From PubChem BioAssay (NCI)
